Key:
[1] = Solubility of crosslinking agent HMTA in methyl benzoate by proton NMR with duroquinone internal standard; format: physicochemical; details: solvent methyl benzoate
Method: For compositional analysis, a Bruker 400 megahertz (MHz) NMR instrument was used. The solubility of crosslinking agent, HMTA, in methyl benzoate was measured by using duroquinone as the internal standard.
The high solubility of HMTA results directly from the plasticized phenol-formaldehyde prepolymer. […] J. P. Patel, et al., J. Polym. Sci. Part B: Polym. Phys., 2015, vol. 53, pp. 1519-1526. […] In this scheme methyl benzoate indirectly increases the interaction between the two reactants, the crosslinking agent HMTA and the phenol-formaldehyde prepolymer.

[2] = solvent furfural; cited from earlier work

For `C1N2CN3CN1CN(C2)C3` [HMTA, hexamethylenetetramine], the “solubility of HMTA in methyl benzoate (in words)” value [1] is given as “virtually insoluble”, the “solubility of HMTA in methyl benzoate” value ([1]; proton NMR, duroquinone internal standard) is given as “no more than 5 milligrams of HMTA per milliliter of methyl benzoate” and the “solubility of HMTA in furfural” value [2] is given as “less than two”.

Reference: US10815329B2, “Plasticized thermoset resin, and associated cured resin, method of curing, and article comprising cured resin” (The University of Massachusetts, priority 2016, dated 2020)
